Results taken from patent publication EP3958980B1, “TARGETED NOVEL TRIAZOLOTHIADIAZINE DERIVATIVES FOR THE TREATMENT OF LUNG CANCER” (Anadolu Universitesi, priority 2020, dated 2021).
Converted amounts (≈) assume the structure as drawn. “And” between values parts separate entries of the source, which are not always exact repeats. Identical values can stand only once.

How the values were obtained:
COX-2 = target: T1, COX-2 (Homo sapiens, UniProt P35354); assay: COX activity assay (colorimetric kit) on lysates of treated A549 cells, COX-2; type: cell-based; conditions: 24 hours incubation, IC50 concentrations
T1 construct: endogenous in cells; host or cells: A549
T1 sequence (P35354 18-604): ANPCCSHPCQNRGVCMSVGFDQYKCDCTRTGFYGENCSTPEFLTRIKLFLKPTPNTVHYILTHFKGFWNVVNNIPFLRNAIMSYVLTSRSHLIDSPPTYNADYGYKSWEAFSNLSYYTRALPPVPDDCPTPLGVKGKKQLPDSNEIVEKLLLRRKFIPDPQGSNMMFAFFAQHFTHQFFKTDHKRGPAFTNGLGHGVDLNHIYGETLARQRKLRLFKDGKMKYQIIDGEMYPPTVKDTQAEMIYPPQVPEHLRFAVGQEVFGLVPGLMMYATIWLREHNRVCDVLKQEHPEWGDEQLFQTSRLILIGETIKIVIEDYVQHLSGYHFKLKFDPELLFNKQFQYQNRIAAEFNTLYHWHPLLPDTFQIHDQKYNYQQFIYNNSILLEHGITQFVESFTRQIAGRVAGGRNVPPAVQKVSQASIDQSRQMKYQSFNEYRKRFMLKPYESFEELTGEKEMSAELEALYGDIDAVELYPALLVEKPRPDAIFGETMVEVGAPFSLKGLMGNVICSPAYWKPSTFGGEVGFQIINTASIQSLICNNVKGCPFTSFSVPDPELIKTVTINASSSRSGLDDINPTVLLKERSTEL
Protocol: (§1) The intracellular COX, Akt and ROCK inhibitory effects of the active compounds determined with the MTT assay, were measured with the colorimetric assay according to the manufacturer's recommendations.
(§2) COX activity was carried out using Cayman COX activity assay kit in compliance with the manufacturer's recommendations. Briefly, 150 µL of each sample was kept in boiling water for 5 minutes and centrifuged at 8000 × g for 1 minute and it was used to obtain background values. […] 110 µL assay solution, 10 µL hemin and 40 µL sample, 10 µL DuP-697 or SC-560 was added to the inhibitor wells (DuP-697 inhibits COX-2 activity; while SC-560 inhibits COX-1 activity). The plate was shaked for a few seconds and it was left at 25 °C for 5 minutes. 20 µL colorimetric substrate was added to all wells. Moreover, a reaction was started by adding 20 µL arachidonic acid solution and the plate was shaked for a few seconds and it was left at 25 °C for 5 minutes. The absorbance values were read at 540 nm.

ROCK = ROCK activity assay on lysates of treated A549 cells; type: cell-based, human; conditions: for ROCK Inhibition% / ROCK inhibition (in words): 24 hours; for ROCK Inhibition%: IC50 concentration (9: 5.75; 11: 0.73; 12: 0.80; 14: 2.63; Cisplatin: 23.00 µg/mL); for ROCK inhibition (in words): IC50 and IC50/2 concentrations
Protocol: as §1
Two wells were used for each sample. 90 µL active ROCK-II positive control and samples were added to the wells of the substrate plate. 10 X kinase solution comprising DTT and ATP was added to 10 µL wells and the kinase reaction was started and the plate was incubated at 30 °C for 30-60 minutes. 50 µL 0.5 M EDTA was added to each well at pH=8.0 and the reaction was stopped. The wells were emptied and they were washed 3 times with 250 µL 1X washing solution. After the final washing, 100 µL anti-phospho-MYPT1 (Thr696) antibody was added. The plate was closed and it was incubated at room temperature for 1 hour on an orbital shaker. After the wells were washed three times again, 100 µL HRP-conjugated secondary antibody was added and it was incubated again at room temperature for 1 hour on an orbital shaker. After the wells were emptied, they were washed 3 times. Then 100 µL of substrate solution was added. It was incubated at room temperature for 5-20 minutes on an orbital shaker. 100 µL of stop solution was added. The absorbance of each well was read at a wavelength of 450 nm in a spectrophotometric microplate reader.

caspase-3 = assay: Caspase-3 activity by flow cytometry; type: cell-based, human; conditions: A549 cells, 24 hours, IC50 concentrations
Protocol: After the active compounds were determined with the MTT assay, their caspase-3 activities on A549 cells depending on IC50 concentrations were determined in flow cytometry with BD, Pharmingen flow cytometry kit according to the manufacturer's recommendations. Briefly, the cells were incubated at the determined doses and times with the compounds. The cells were washed twice with cold 1 X PBS. These cells were suspended with BD Cytofix/Cytoperm solution (1×10^6 cell / 0.5 mL). Then they were left to wait on ice for 20 minutes. After centrifugation, the cells were removed with the BD Cytofix/Cytoperm solution. The cells were washed twice with BD Perm/Wash™ buffer (1×10^6 cell/0.5 mL). Afterwards the cells were re-suspended with BD Perm/Wash™ buffer and antibodies and they were kept at room temperature for 30 minutes. For each test, the cells were washed in 1 mL BD Perm/Wash^TM buffer and were suspended in 0.5 mL BD Perm/Wash^TM buffer and they were analyzed with flow cytometry.

COX-1 = target: T2, COX-1 (Homo sapiens, UniProt P23219); assay: COX activity assay (colorimetric kit) on lysates of treated A549 cells, COX-1; type: cell-based; conditions: 24 hours incubation, IC50 concentrations
T2 construct: endogenous in cells; host or cells: A549
T2 sequence (P23219 24-599): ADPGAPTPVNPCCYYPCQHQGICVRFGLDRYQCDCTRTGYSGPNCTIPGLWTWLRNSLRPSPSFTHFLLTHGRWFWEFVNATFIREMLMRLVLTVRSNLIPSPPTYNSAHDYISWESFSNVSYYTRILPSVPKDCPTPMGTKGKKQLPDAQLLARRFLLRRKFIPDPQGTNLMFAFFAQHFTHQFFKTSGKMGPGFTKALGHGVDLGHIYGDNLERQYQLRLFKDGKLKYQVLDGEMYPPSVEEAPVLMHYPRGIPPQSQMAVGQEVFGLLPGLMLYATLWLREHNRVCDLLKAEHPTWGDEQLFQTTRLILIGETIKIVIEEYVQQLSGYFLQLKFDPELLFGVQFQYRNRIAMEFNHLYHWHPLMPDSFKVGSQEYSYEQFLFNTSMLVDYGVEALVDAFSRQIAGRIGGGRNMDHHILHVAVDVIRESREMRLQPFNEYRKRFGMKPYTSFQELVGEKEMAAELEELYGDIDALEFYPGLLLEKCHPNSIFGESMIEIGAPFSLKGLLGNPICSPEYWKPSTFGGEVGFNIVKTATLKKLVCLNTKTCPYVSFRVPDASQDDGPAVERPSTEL
Protocol: as §1, §2

A549 cells = assay: JC-1 staining, mitochondrial membrane integrity by flow cytometry; type: cell-based, human; conditions: 24 hours, IC50 concentrations
Protocol: After the active compounds were determined with the MTT assay, the determination of mitochondrial membrane integrity in A549 cells depending on IC50 concentrations were carried out in flow cytometry with BD, Pharmingen flow cytometry kit according to the manufacturer's recommendations. Briefly, the cells were seeded with optimal density (must not exceed 1×10^6 cell/mL). Following this, the cells were incubated with concentrations and time suitable for the compounds to be tested. After treatment, each cell suspension was transferred into a 15 mL polystyrene centrifuge tube and the cells were centrifuged at 400 × g for 5 minutes at room temperature, and supernatant was removed. Later, 0.5 mL freshly prepared working solution was added to each pellet and was vortexed. The cells were incubated in JC-1 working solution at 37 °C for 10-15 minutes and they were washed twice. In the first wash, 2 mL 1X assay buffer was added and the cells were precisely suspended. Following this, the cells were centrifuged at 400 × g for 5 minutes and the supernatant was removed carefully. In the next wash, 1 mL 1X assay buffer was added and was vortexed. After the cells were centrifuged at 400 × g for 5 minutes, each cell pellet was suspended in a 0.5 mL 1X assay buffer and was vortexed. Finally, the cell is analyzed with flow cytometry.

SMILES	COX-2 Inhibition% (COX-2)	COX-2 activity (U/mL) (COX-2)	ROCK Inhibition% (ROCK)	ROCK Inhibition% (ROCK; listed as cisplatin)	Caspase-3 negative (-) cells% (caspase-3)	Caspase-3 positive (+) cells% (caspase-3)	COX-1 Inhibition% (COX-1)	COX-1 activity (U/mL) (COX-1)	Mitochondrial membrane depolarized (P2) cells% (A549 cells)	Mitochondrial membrane polarized (P1) cells% (A549 cells)	ROCK inhibition (in words) (ROCK)	IC50 (ROCK inhibition) (ROCK; 24 hours incubation)
N.N.[Cl][Pt][Cl] [Cisplatin, reference compound]	43.46%	2.38 U/mL	29.84±0.16%	29.84%	89.70%	10.30%	24.65%	3.08 U/mL	48.00%	52.40%		
CS(=O)(=O)c1ccc(C2=Nn3c(CCc4ccc5c(c4)OCO5)nnc3SC2)cc1 [Compound 9]	32.66%	3.60 U/mL	6.89±0.44%		96.70%	3.40%	35.21%	3.41 U/mL	8.80%	91.10%	did not exhibit significant ROCK inhibition	
FC(F)(F)c1ccc(C2=Nn3c(CCc4ccc5c(c4)OCO5)nnc3SC2)cc1 [Compound 11, 3-[2-(1,3-Benzodioxole-5-yl)ethyl]-6-(4-trifluoromethylphenyl)-7H-[1,2,4]triazolo [3,4-b][1,3,4]thiadiazine]		1.46 U/mL			97.00%	3.10%	54.18%	1.88 U/mL	58.80%	41.30%	did not exhibit significant ROCK inhibition	
Fc1cccc(C2=Nn3c(CCc4ccc5c(c4)OCO5)nnc3SC2)c1 [Compound 12, 3-[2-(1,3-Benzodioxole-5-yl)ethyl]-6-(3-fluorophenyl)-7H-[1,2,4]triazolo [3,4-b] [1,3,4]thiadiazine]	53.52%	1.95 U/mL			97.80%	2.40%		2.51 U/mL	47.00%	53.00%	did not exhibit significant ROCK inhibition	
c1ccc(-c2ccc(C3=Nn4c(CCc5ccc6c(c5)OCO6)nnc4SC3)cc2)cc1 [Compound 14, 3-[2-(1,3-Benzodioxole-5-yl)ethyl]-6-(biphenyl-4-yl)-7H-[1,2,4]triazolo[3,4-b] [1,3,4]thiadiazine]	15.17% and 15.70%	3.56 U/mL	53.85% and 53.85±8.85%		96.60%	3.70%	2.19%	4.15 U/mL	47.20%	53.20%		2.55 ± 0.21 µg/mL (≈ 5.79 µM)
